Experimental data: the Kinase Knowledgebase extract (Sharma et al. 2016)

Target: MAPK14 (human) (UniProt Q16539)
Experiment: Inhibition of MAPK14 Kinase Activity

Sequence of MAPK14 (human) (Q16539 whole entry, looked up): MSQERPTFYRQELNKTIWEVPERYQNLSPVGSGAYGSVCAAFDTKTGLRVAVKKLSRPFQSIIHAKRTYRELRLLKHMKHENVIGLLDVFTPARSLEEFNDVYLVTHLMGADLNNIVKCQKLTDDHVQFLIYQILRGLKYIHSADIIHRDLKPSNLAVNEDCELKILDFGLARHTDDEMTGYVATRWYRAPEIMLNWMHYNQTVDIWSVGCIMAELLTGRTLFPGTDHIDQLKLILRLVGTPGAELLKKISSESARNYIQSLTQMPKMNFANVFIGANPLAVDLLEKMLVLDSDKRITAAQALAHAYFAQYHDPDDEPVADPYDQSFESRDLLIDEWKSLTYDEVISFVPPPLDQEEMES

IC50 [nM] | Structure (SMILES)
≤ 1000 | CC(C)NC(=O)c1csc(-c2oc(CN3CCN(C(=O)c4cc(F)c(F)cc4[N+](=O)[O-])CC3)nc2-c2ccc(F)cc2)n1
≤ 1000 | CC(C)NC(=O)c1csc(-c2c(-c3ccc(F)cc3)noc2CN(C)C)n1
